These results are taken from patent US20190038667A1, “APPLICATION OF FULLERENE/METAL-FULLERENE FOR PREPARING PHARMACEUTICAL PRODUCT” (BEIJING FU NA KANG BIOTECHNOLOGY CO., LTD., priority 2016, published 2019).

Data set [1] deals with ICR mice. Kind of data set: Effects of Olive-C60 on blood biochemical indexes in the second course (serum). Type of data set: in vivo. Particulars: 18th day, versus blank control group.
Method: (§1) Animal models: ICR mice aged 4-5 weeks were selected and assigned randomly into 5 groups with 6 mice per group.
(§2) The second course started 20 days after the day when the first course was initiated and mice were basically recovered. In other words, the 21st day of the first course was marked as the first day of the second course. Thereafter, intraperitoneal injection of CTX was conducted once a day for 5 consecutive days; and Olive-C60 or olive was administered intragastrically or intraperitoneally. 5 days later, no drug was given; and only observation or sampling was conducted.
Effects of Olive-C60 on blood biochemical indexes in the second course on an intravital level: On the 18th day of the second course of the experiment, whole blood was taken from orbits, serums were obtained by centrifugation, and blood biochemical indexes were tested.
Data set [2] relates to ICR mice. As to conditions: second course.
Method: as §1
100 μL of normal saline was administered intragastrically so as to eliminate the difference influenced by intragastric stimulation on mice.
(§3) Blank control group: The CTX solution injected in the experimental group was replaced with equal volumes of normal saline, and normal saline of the volume equal to 100 μL was administered intragastrically or intraperitoneally to replace Olive-C60 or olive oil.
as §2
Effects of Olive-C60 on myelosuppression in the second course on an intravital level: blood (13 μl) was taken from orbits of mice on the 4th day, the 7th day, the 10th day and the 17th day of the second course respectively, and was placed in a 3 ml centrifuge tube, and the blood routine examination was conducted using a blood cell automatic analyzer, wherein the main indexes related to myelosuppression are white blood cell counts (WBC), platelet counts (PLT), red blood cell counts (RBC) and hemoglobin determination (HGB). Meanwhile, changes in the weight of mice were monitored.
In data set [3] the test system is ICR mice. Kind of data set: Protection on myelosuppression caused by CTX in H22 tumor mice (blood routine examination). Type of data set: in vivo.
Method: Blank control group: The drugs injected either intragastrically or intraperitoneally in the experimental groups were replaced with equal volumes of normal saline.
GFNC experimental group: Mice were injected with a GFNC aqueous solution (1 mM) via caudal veins at a dosage of 0.004 mmol of GFNC/kg of body weight of mice.
CTX+GFNC experimental group: Mice were injected intraperitoneally with a CTX solution at a dosage of 60 mg/kg of body weight of mice, and GFNC solution was injected intravenously at a dosage of 0.004 mmol of GFNC/kg of body weight of mice.
Injection of drugs was initiated on the 7th day after tumor inoculation, which was marked as the first day of the experiment. Intraperitoneal injection of CTX or intravenous injection of GFNC was conducted once a day for 5 consecutive days; thereafter, blood (20 μl) was taken respectively from orbits of mice on the 4th day, the 7th day, the 10th day, the 14th day and the 17th day, and was placed in a 3 ml centrifuge tube, and the blood routine examination was conducted using a blood cell automatic analyzer, wherein the main indexes related to myelosuppression are white blood cell counts (WBC), platelet counts (PLT), hemoglobin determination (HGB) and monocyte proportion (MO %).
Animal model: ICR mice aged 4-5 weeks were selected and assigned randomly into 4 groups with 6 mice per group. […]
For data set [4], the system named is ICR mice. Nature of the data set: Influence of GFNC on therapeutic effects of CTX on tumors and toxic experiment.
Method: Blank control group: The injected drugs in the experimental groups were replaced with equal volumes of normal saline.
Metallofullerene derivative (GFNC) experimental group: Mice were injected intravenously with a GFNC solution at a dosage of 0.04 mmol of Gd^3+/kg of body weight of mice.
CTX+GFNC experimental group: Mice were injected intraperitoneally with a CTX solution at a dosage of 60 mg/kg of body weight of mice, and GFNC solution was injected intravenously at a dosage of 0.04 mmol of Gd^3+/kg of body weight of mice.
Injection of drugs was initiated on the 7th day after tumor inoculation, which was marked as the first day of the experiment. Intraperitoneal injection of CTX or intravenous injection of GFNC was conducted once a day for 5 consecutive days, and weights of mice and tumor diameters were measured every two days; thereafter, on the 17th day, mice were fetched and their eye balls were removed, and blood was taken respectively from their orbits; then, the blood was placed in a 5 ml centrifuge tube where it was centrifuged for 15 minutes at a rotational speed of 3,500 rpm; after that, a resultant serum was transferred into a 200 μL centrifuge tube, and blood biochemical indexes (e.g., ALT, ALP, AST, BUN, LDH and UA) of the mice were detected in a blood biochemical instrument; after mice were sacrificed by cervical dislocation, their main tissues and organs (hearts, livers, spleens, lungs and kidneys) were taken and weighed, and were then soaked in a 4% formalin solution; thereafter, histopathological section was conducted, and then, H&E staining was conducted. The blank control group, the cyclophosphamide (CTX) experimental group and the metallofullerene experimental group (GFNC) were processed in the same way for comparison.
In data set [5] the test system is ICR mice. As to conditions: first course.
Method: as §1, §3
After ICR mice aged 4-5 weeks were bred in a laboratory, CTX solutions were injected on the seventh day when their conditions were stable, which was marked as the first day of the experiment. Intraperitoneal injection of CTX was conducted once a day for 5 consecutive days; meanwhile, Olive-C60 or Olive or the normal saline was administered intragastrically or intraperitoneally. 5 days later, no injection was made, and only observation or sampling was conducted.
Effects of Olive-C60 on myelosuppression in the first course on an intravital level: blood (13 μl) was taken from orbits of mice on the 4th day, the 7th day, the 10th day and the 17th day respectively, and was placed in a 3 ml centrifuge tube, and the blood routine examination was conducted using a blood cell automatic analyzer, wherein the main indexes related to myelosuppression are white blood cell counts (WBC), platelet counts (PLT), red blood cell counts (RBC) and hemoglobin determination (HGB). Meanwhile, changes in the weight of mice were monitored.
For data set [6], the system named is ICR mice. Kind of data set: Effects of Olive-C60 on relevant enzyme activities in the second course (serum). It is filed as in vivo. Particulars: 18th day, Olive-C60 intragastrically with CTX, or CTX alone, versus blank control group.
Method: as §1, §2
Effects of Olive-C60 on relevant enzyme activities in the second course on an intravital level: On the 18th day of the second course of the experiment, whole blood was taken from orbits, serums were obtained by centrifugation, and different relevant enzyme activities were tested.
The mark [7] stands for this setting: CTX 60 mg/kg i.p. x5 days alone.
[8] abbreviates: 17th day, CTX alone or CTX+GFNC.

SMILES strings stand for the structures. Read-outs that look alike come from different tables or passages of the source.

For the molecule `O=P1(N(CCCl)CCCl)NCCCO1` (stereo not shown) [CTX, cyclophosphamide], in the data set on ICR mice [1], the “level of uric acid in the serum” value is “far lower than that in the serum of mice in the blank control group”. Further, the “white blood cells on the 17th day” value in the data set with ICR mice [2] (17th day, CTX alone or with Olive-C60) was “still below their normal levels”. Moreover, the “white blood cells, red blood cells, platelets and hemoglobin compared with the blank control group” value in the data set with ICR mice [2] (setting [7]) and with ICR mice [5] (setting [7]) was “varying degrees of reduction” in each case. Also, the weight of mice entry was “differs greatly from that of the mice in other groups” in the data set on ICR mice [2] (CTX alone or with Olive-C60); “lower than that of the mice in any other groups” in the data set on ICR mice [2] (CTX alone or with Olive-C60, listed as cyclophosphamide); “drops obviously in the initial stage of drug injection” in the data set on ICR mice [4] (CTX 60 mg/kg i.p. x5 days alone or with GFNC 0.04 mmol of Gd3+/kg intravenously); “lower than that of the mice in any other groups” in the data set with ICR mice [5] (CTX 60 mg/kg i.p. x5 days, alone or with Olive-C60 100 μL (1,500 ppm), after termination of CTX injection / later stage). Also, the monocytes entry with ICR mice [3] (CTX 60 mg/kg i.p. x5 days alone or with 0.004 mmol/kg material intravenously x5 days) is on record as “abnormal hyperplasia”. In the data set with ICR mice [3] (H22 tumor mice, CTX 60 mg/kg i.p. x5 days alone (versus blank control) or with 0.004 mmol/kg material intravenously x5 days (versus CTX group)), the “white blood cells, platelets and hemoglobin” value is listed as “varying degrees of reduction”. Moreover, in the data set with ICR mice [4] (setting [8]), the “histopathological sections of main tissues and organs (H&E staining)” value is listed as “damaged to a certain extent”. The “pathological sections of tumor sites: cells of tumor tissues” value with ICR mice [4] (setting [8]) was “die in great quantity”. Besides, the “level of MDA” value in the data set with ICR mice [6] was “higher than that of mice in the blank control group”.
